# In patent publication US11001613B2, “TFPI inhibitors and methods of use” (priority 2008, dated 2021):
# pEC50: −log10 of the molar value. Residues, ends and D or L forms follow the SMILES beside them.
# Experiments:
# TFPI-1 = target: T1, TFPI-1 (Homo sapiens, UniProt P10646); test: FXa inhibition assay; assay type: biochemical; details: OD readings after 115 minutes
# T1 sequence (P10646 29-304): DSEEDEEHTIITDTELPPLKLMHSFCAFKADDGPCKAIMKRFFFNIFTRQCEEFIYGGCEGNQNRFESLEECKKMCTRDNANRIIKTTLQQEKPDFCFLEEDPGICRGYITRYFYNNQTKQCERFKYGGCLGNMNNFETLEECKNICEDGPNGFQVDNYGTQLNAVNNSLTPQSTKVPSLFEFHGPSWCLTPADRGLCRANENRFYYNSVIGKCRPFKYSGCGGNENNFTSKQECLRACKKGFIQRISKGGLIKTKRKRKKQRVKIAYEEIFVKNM
# [1] = test system: TFPI-dependent thrombin generation in FVIII deficient plasma; test: thrombin generation (calibrated automated thrombography) in FVIII deficient plasma; details: plasma-based assay, FIGS. 11A and 11B
# [2] = in vivo, iv, 10 mg/kg
# Protocol: The peptides were administered intravenously to C57Bl6 mice at a dose of 10 mg/kg. Three biological samples were analyzed for the presence of peptide at each time point.
smiles,measurement,setting,value
CC(=O)N[C@@H](Cc1ccccc1)C(=O)N[C@@H](CCC(N)=O)C(=O)N[C@@H](CO)C(=O)N[C@@H](CCCCN)C(=O)N[C@@H](CC(N)=O)C(=O)N[C@@H](CC(N)=O)C(=O)N[C@H](C(=O)N[C@@H](Cc1ccccc1)C(=O)N[C@H](C(=O)N[C@@H](Cc1ccccc1)C(=O)NCC(=O)N[C@@H](Cc1ccc(O)cc1)C(=O)N[C@@H](Cc1ccccc1)C(=O)N[C@@H](CCC(=O)O)C(=O)N[C@@H](CCCNC(=N)N)C(=O)N[C@@H](CC(C)C)C(=O)N[C@@H](CCCNC(=N)N)C(=O)N[C@@H](C)C(=O)N[C@@H](CCCCN)C(=O)N[C@@H](CC(C)C)C(N)=O)C(C)C)C(C)C [JBT0297] (Ac-FQSKNNVFVFGYFERLRAKL-NH2),pEC50,TFPI-1,6.22
CSCC[C@@H]1NC(=O)CNC(=O)[C@@H](NC(=O)[C@H](Cc2ccccc2)NC(=O)[C@H](Cc2c[nH]c3ccccc23)NC(=O)[C@H](CCCCN)NC(=O)[C@H](Cc2ccc(O)cc2)NC(=O)[C@H](CCCNC(=N)N)NC(=O)[C@H](CO)NC(=O)[C@H](C)NC(=O)CNC(=O)[C@H](CO)NC(C)=O)CSSC[C@@H](C(=O)N[C@H](C(=O)N[C@@H](Cc2c[nH]c3ccccc23)C(=O)N[C@H](C(=O)N[C@@H](CCCCN)C(=O)N[C@@H](Cc2ccccc2)C(=O)N[C@@H](CCCNC(=N)N)C(=O)N[C@@H](Cc2ccc(O)cc2)C(=O)N[C@@H](CC(=O)O)C(=O)N[C@H](C(=O)N[C@@H](CO)C(N)=O)[C@@H](C)O)C(C)C)C(C)C)NC(=O)[C@H](CO)NC(=O)[C@H](CCSC)NC(=O)[C@H]([C@@H](C)O)NC(=O)CNC(=O)[C@H](CCCCN)NC(=O)[C@H](CCSC)NC(=O)[C@H](CC(=O)O)NC(=O)[C@H](CCCNC(=N)N)NC1=O [JBT0120],peak thrombin and peak time,[1],"improved peak thrombin and peak time, dose dependently"
CC(=O)N[C@@H](Cc1ccccc1)C(=O)N[C@@H](CCC(N)=O)C(=O)N[C@@H](CO)C(=O)N[C@@H](CCCCN)C(=O)NCC(=O)N[C@@H](CC(N)=O)C(=O)N[C@H](C(=O)N[C@@H](Cc1ccccc1)C(=O)N[C@H](C(=O)N[C@@H](CC(=O)O)C(=O)NCC(=O)N[C@@H](Cc1ccc(O)cc1)C(=O)N[C@@H](Cc1ccccc1)C(=O)N[C@@H](CCC(=O)O)C(=O)N[C@@H](CCCNC(=N)N)C(=O)N[C@@H](CC(C)C)C(=O)NC(C)(C)C(=O)N[C@@H](C)C(=O)N[C@@H](CCCCN)C(=O)N[C@@H](CC(C)C)C(N)=O)C(C)C)C(C)C [JBT0740],concentration of peptide in mouse plasma over time,[2],rapidly cleared from the plasma
